The compounds below were run on P. falciparum 3D7 growth, pLDH absorbance (assay: blood-stage malaria parasite growth potency – strain 3D7, dose response (AID 2305)).

| SMILES | IC50 |
| --- | --- |
| COc1ccc(N2CCN(CCCCNC(=O)c3ccc(NC(=O)c4cc(C(F)(F)F)cc(C(F)(F)F)c4)cc3)CC2)c(OC)c1 | 150 nM |
| Oc1ccc(CCNc2nc(N/N=C/c3ccc(Cl)cc3)nc(N3CCNCC3)n2)cc1 | 580 nM |
| c1cc(CN2CCN(CCN3CCOCC3)CC2)cc(-c2cccc(-c3nc4ccccc4[nH]3)c2)c1 | 240 nM |
| O=C(NC1CCN(Cc2ccccc2O)C1)c1ccc(Cl)c(Cl)c1 (centres undefined) | 890 nM |
| COc1ccc(Nc2nccc(-c3ccc4c(-c5ccsc5)cnc(N)c4c3)n2)cc1 | 240 nM |
| CCOc1ccccc1CCNC(C)Cc1ccc(C(=O)Nc2ccc(CC(C)NCCc3cccc(Cl)c3)cc2)cc1 (centres undefined) | 540 nM |
| COc1ccc(NC(=O)/C=C/c2ccccc2Cl)cc1OCCN1CCC(N(C)C)CC1 | 970 nM |
| O=C(Nc1cccc(-c2csc(-c3nc4ccccc4[nH]3)c2)c1)c1ccncc1 | 260 nM |
| O=C(NCCCCCN1CCC(c2c[nH]c3ccccc23)CC1)c1ccc(Cl)c(Cl)c1 | 1360 nM |
| CCCCCCN1CCC(NCc2cccc(C(F)(F)F)c2)CC1 | 250 nM |
| CCOC(=O)CNC(=O)N(CCN(Cc1ccccc1)C(=O)NCC(=O)OCC)Cc1ccccc1 | 770 nM |
| O=C(Nc1ccccc1)c1ccc(-c2cc3ccncc3cc2OC2CCNCC2)s1 | 650 nM |
| CC(C)(C)NS(=O)(=O)c1cc(C(=O)N2CCC(CCN3CCC(C(=O)c4ccc(F)cc4)CC3)(c3cccc(F)c3)CC2)c(Cl)cc1F | 750 nM |
| COc1cccc(CN2CCC(CCOC(c3ccccc3)c3ccccc3)CC2)c1O | 730 nM |
| COc1ccccc1C1CCN(C2CCC(NC(=O)/C=C/c3cc(C(F)(F)F)ccc3F)CC2)CC1 (centres undefined) | 870 nM |
| Cc1cc2ccc(/C=C/C(=O)NC3CCC(CCN4CCc5ccc(C#N)cc5CC4)CC3)cc2[nH]1 (centres undefined) | 940 nM |
| O=S(=O)(Nc1cc2c(cc1O)CCNCC2)c1ccc(-c2ccc(Cl)cc2)cc1 | 980 nM |
| O=C(Nc1ccncc1)Nc1ccc2c(c1)CCN(C1CCC1)CC2 | 1130 nM |
| O=C(Nc1ccc(S(=O)(=O)N2CCCCCC2)cc1)c1cc(-c2ccccc2O)n[nH]1 | 720 nM |
| Cc1ccc2c(=O)cc(CCc3cccc(F)c3F)n(CC(=O)N(Cc3ccc(-c4ccc(C(F)(F)F)cc4)cc3)C3CCN(C(C)C)CC3)c2n1 | 780 nM |
| N#Cc1ccc(/C=C/C(=O)NCCCCCN2CCCN(C(=O)Nc3ccc(Cl)c(C(F)(F)F)c3)CC2)cc1 | 440 nM |
| CCCc1ccccc1OCC(O)CN(C1CCCC1)C1CCCC1 (centres undefined) | 470 nM |
| CC(C)N1CCC(N(Cc2ccc(-c3ccc(C(F)(F)F)cc3)cc2)C(=O)Cn2c(CCc3cccc(F)c3F)cc(=O)c3c2CCC3)CC1 | 620 nM |

| SMILES | IC50 |
| --- | --- |
| Cc1ccc(Cc2c(N)nc3nc(N)nc(N)c3c2C)cc1 | 190 nM |
| O=C(/C=C/c1ccc(Cl)c(Cl)c1)NCCCCCN1CC[C@H](NC(=O)/C=C/c2ccccc2)C1 | 1000 nM |
| COc1ccc2ncc(Cl)c(NCC3(O)CCC(NCc4ccc5c(n4)NC(=O)CS5)CC3)c2n1 (centres undefined) | 600 nM |
| Cc1cccc(Cn2c(C(N)=O)nn(-c3ccc([N+](=O)[O-])cc3C#N)c2=S)c1 | 730 nM |
| O=C(Nc1ccc(-c2cccc(-c3nc4ccc(F)cc4[nH]3)c2)cc1)c1ccncc1 | 720 nM |
| N#Cc1ccc(N2CCN(C(=O)c3cccc(-c4noc(C(F)(F)F)n4)c3)CC2)nc1 | 220 nM |
| COc1cc2nc(NCCCN3CCCCC3)nc(NCc3ccccc3)c2cc1OC | 1000 nM |
| Cc1nc2nc(N)nc(N)c2c(C)c1Cc1cccc(C#N)c1 | 920 nM |
| COc1cc2nc(C)nc(Nc3ccc(Oc4ccccc4)cc3)c2cc1OC | 720 nM |
| COc1ccc(C2CC(c3cccs3)=NN2C(=O)c2ccco2)cc1OC (centres undefined) | 170 nM |
| Cc1cc2c3c(N)nc(N)nc3ccc2n1C | 90 nM |
| N#Cc1ccc(N[C@@H](CC2CCCCC2)C(=O)Nc2ccc(-c3ccccc3)cc2)c2ccccc12 | 600 nM |
| O=S(=O)(c1ccc(Oc2ccccc2)cc1)N(CCC(O)(C(F)(F)F)C(F)(F)F)Cc1cccc(O)c1 | 490 nM |
| O=S(=O)(c1c(Cl)cc(Cl)cc1Cl)N1CCCCC(c2ccc(Cl)cc2)=N1 | 400 nM |
| Cc1ccc(F)c(NC(=O)c2c(-c3c(F)cccc3Cl)noc2C)c1 | 930 nM |
| Cc1cccc2[nH]c(-c3cccc(-c4cccc(NC(=O)CN5CCN(C)CC5)c4)c3)nc12 | 530 nM |
| COc1ccc(NC(=O)C2CCN(CCCCCNC(=O)/C=C/c3ccc(Cl)c(Cl)c3)CC2)cc1 | 830 nM |
| Cc1[nH]c2ccccc2c1C1=CCN(CCCCC23CCCc4cccc(c42)NC3=O)CC1 (centres undefined) | 230 nM |
| Fc1ccc2nc(-c3ccc(-c4ccc(CN5CCCCC5)cc4)s3)[nH]c2c1 | 600 nM |
| COc1ccccc1C1CCN(C2CCC(NC(=O)c3cc4ccccc4[nH]3)CC2)CC1 (centres undefined) | 1210 nM |
| CC(C)Sc1nc2c(c(=O)n1Cc1ccco1)C1(CCCCC1)Cc1ccccc1-2 | 250 nM |
| O=S(=O)(NCCN1CCCC1)c1ccc(-c2cccc(CNCc3ccc(F)cc3)c2)s1 | 760 nM |
| Fc1ccc2nc(-c3cccc(-c4cccc(CNCc5cnn(-c6ccccc6)n5)c4)c3)[nH]c2c1 | 970 nM |

| SMILES | IC50 |
| --- | --- |
| Clc1ccc2c(Cl)c(CNCCCNc3nc4ccccc4[nH]3)[nH]c2c1 | 220 nM |
| COc1ccccc1-c1ccc2nnc(SCC(=O)Nc3ccc4c(c3)OCCO4)n2n1 | 720 nM |
| C[C@@H]1CN(c2cnn(C/C=C/c3ccc(NC(=O)c4ccc([N+](=O)[O-])cc4)cc3)c(=O)c2Cl)C[C@H](C)N1 | 700 nM |
| Cc1ccccc1-c1cc(=O)c2cc(NC(=O)c3cccs3)ccc2o1 | 220 nM |
| Cc1c(CC(=O)NCCC2CCN(CCCCCNC(=O)/C=C/c3ccc(Cl)c(Cl)c3)CC2)sc2ccc(Cl)cc12 | 880 nM |
| CC(C)C[C@@H](/C=N/N1CC(=O)NC1=O)NC(=O)[C@H](CC(C)C)NC(=O)c1ccc(OCCN2CCOCC2)cc1 | 270 nM |
| COc1ccccc1OCCN(CC(O)COc1cccc2[nH]c3ccccc3c12)CC(O)COc1cccc2[nH]c3ccccc3c12 (centres undefined) | 640 nM |
| Oc1cccc(CCNCCCCCCNCCc2ccc(Cl)cc2)c1 | 770 nM |
| CCOC(=O)c1ccc(NC(=O)N[C@@H](Cc2ccccc2)C(=O)NC2CCN(Cc3ccc(O)c(OC)c3)C2)cc1 (some centres undefined) | 990 nM |
| O=c1cc(NCCCNCc2cc3ccc(Br)cc3s2)[nH]c2ccccc12 | 990 nM |
| CC(C)C[C@@H](CNC[C@H](CC(C)C)NC(=O)OC(C)(C)C)NC(=O)OC(C)(C)C | 1250 nM |
| COCCN1CCN(Cc2ccc(-c3cccc(-c4nc5ccccc5[nH]4)c3)cc2)CC1 | 1110 nM |
| CCCCc1ccccc1NS(=O)(=O)c1ccc(OC)c(N2CCNCC2)c1 | 1380 nM |
| Cc1ccc(NC(=O)c2ccc(CN3CCCN(CCC(C)C)CC3)cc2)cc1C | 910 nM |
| Cc1ccc(NC(C)C(=O)Nc2ccc(C#N)cc2)cc1S(=O)(=O)N1CCCCC1 (centres undefined) | 540 nM |
| NC1=NC2(CCCCC2)N(OCC2CCCCC2)C(N)=N1 | 150 nM |
| CN(C)CCN(C)Cc1ccc(-c2ccc3c(Nc4ccc(F)cc4Cl)ccnc3c2)o1 | 120 nM |
| Oc1ccccc1CN(CCCN(Cc1ccccn1)Cc1ccccc1O)Cc1ccccn1 | 1060 nM |
| Cc1cc(N[C@@H](CC(C)C)C(=O)NCc2cccs2)nc(NCCc2ccccc2)n1 | 1190 nM |
| COc1cc(Nc2nccc(N3CCC(NC(=O)C(C)c4ccc(Cl)cc4)C3)n2)cc(OC)c1OC (centres undefined) | 760 nM |
| Fc1ccc2nc(-c3ccc(-c4ccc(CNCC5CCCO5)cc4)s3)[nH]c2c1 (centres undefined) | 600 nM |
| COC(=O)COc1cc(C(=O)NCCCCN2CCC(c3ccc4c(c3OC)CCCC4)CC2)ccc1-c1ccc(Cl)cc1 | 260 nM |
| O=C(Nc1ccccc1C(F)(F)F)Nc1nn(Cc2c(F)cccc2Cl)cc1Br | 340 nM |

Source: PubChem BioAssay AID2305 (GlaxoSmithKline (GSK), 2010)
